≈ marks a conversion by molar mass, not a printed value.
Legend:
P. aeruginosa LpxC = biological target: T1, P. aeruginosa LpxC (Pseudomonas aeruginosa, UniProt P47205); assay: LpxC Binding Assay (Rapid Fire MS assay); format: biochemical
T1 sequence (P47205 1-303): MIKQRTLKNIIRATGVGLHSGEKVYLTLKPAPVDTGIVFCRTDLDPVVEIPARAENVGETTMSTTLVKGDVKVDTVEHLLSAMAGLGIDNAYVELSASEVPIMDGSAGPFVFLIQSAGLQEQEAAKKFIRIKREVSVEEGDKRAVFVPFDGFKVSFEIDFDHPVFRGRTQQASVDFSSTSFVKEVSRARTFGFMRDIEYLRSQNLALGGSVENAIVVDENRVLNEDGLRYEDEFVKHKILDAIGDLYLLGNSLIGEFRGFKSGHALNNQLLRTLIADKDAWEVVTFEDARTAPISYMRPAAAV
Experimental: (§1) IC50 values against E. coli and P. aeruginosa LpxC are determined using a Rapid Fire MS assay as previously described J. Med. Chem. 2012, 55, 1662-1670.

E. coli LpxC = E. coli LpxC (Escherichia coli, UniProt P0A725); assay: LpxC Binding Assay (Rapid Fire MS assay); format: biochemical
Experimental: as §1

E. coli ATCC25922 = assay: Bacterial susceptibility testing, MIC by broth microdilution (CLSI); format: cell-based; conditions: 35° C., 18-24 h; for MIC: Escherichia coli, ATCC25922, broth microdilution, read-out: MIC E. coli ATCC25922
Experimental: (§2) Minimal inhibitory concentrations (MIC) were determined by the broth microdilution method in accordance with the Clinical and Laboratory Standards Institute (CLSI) guidelines. In brief, organism suspensions were adjusted to a final inoculum between 3×10^5 and 7×10^5 colony-forming units (CFU)/mL. Drug dilutions and inocula were made in sterile, cation adjusted Mueller-Hinton Broth (Beckton Dickinson). In wells, an inoculum volume of 100 μL was mixed to 2 μL of DMSO with 2-fold serial dilutions of drug. All inoculated microdilution trays were incubated in ambient air at 35° C. for 18-24 h. Following incubation, the lowest concentration of the drug that prevented visible growth (OD600 nm<0.05) was recorded as the MIC. Performance of the assay was monitored by the use of laboratory quality-control strains and compounds with defined MIC spectrum, in accordance with CLSI guidelines.

K. pneumoniae ATCC13883 = assay: as above; format: cell-based; conditions: 35° C., 18-24 h; for MIC: Klebsiella pneumoniae, ATCC13883, broth microdilution, read-out: MIC K. pneumoniae ATCC13883
Experimental: as §2

P. aeruginosa 209 PAO1 = assay: as above; format: cell-based; conditions: 35° C., 18-24 h; for MIC: Pseudomonas aeruginosa, PAO1, broth microdilution, read-out: MIC P. aeruginosa 209 PAO1
Experimental: as §2

P. aeruginosa ATCC27835 = assay: as above; format: cell-based; conditions: 35° C., 18-24 h; for MIC: Pseudomonas aeruginosa, ATCC27835, broth microdilution, read-out: MIC P. aeruginosa ATCC27835
Experimental: as §2

K. pneumoniae LpxC = K. pneumoniae LpxC (Klebsiella pneumoniae subsp. pneumoniae, UniProt A6T4N9); assay: LpxC Binding Assay (Rapid Fire MS assay); format: biochemical
Chain of K. pneumoniae LpxC (A6T4N9 whole entry): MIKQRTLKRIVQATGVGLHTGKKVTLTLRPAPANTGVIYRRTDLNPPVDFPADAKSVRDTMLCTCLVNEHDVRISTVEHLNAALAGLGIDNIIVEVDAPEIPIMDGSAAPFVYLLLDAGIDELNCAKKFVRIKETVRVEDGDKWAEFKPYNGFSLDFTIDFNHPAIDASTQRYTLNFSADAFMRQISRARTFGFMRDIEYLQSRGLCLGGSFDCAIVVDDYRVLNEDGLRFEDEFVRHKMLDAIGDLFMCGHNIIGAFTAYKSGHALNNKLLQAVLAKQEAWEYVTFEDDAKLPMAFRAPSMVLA

Chain of E. coli LpxC (P0A725 whole entry): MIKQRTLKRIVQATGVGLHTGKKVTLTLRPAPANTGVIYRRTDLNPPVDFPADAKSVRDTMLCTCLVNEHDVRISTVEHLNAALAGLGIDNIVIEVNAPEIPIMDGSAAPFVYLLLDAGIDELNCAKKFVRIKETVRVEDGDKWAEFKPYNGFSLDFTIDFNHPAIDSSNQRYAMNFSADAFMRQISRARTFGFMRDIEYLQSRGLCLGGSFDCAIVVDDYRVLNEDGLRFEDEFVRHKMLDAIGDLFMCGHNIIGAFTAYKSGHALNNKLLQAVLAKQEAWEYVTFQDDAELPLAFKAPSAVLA

MIC (E. coli ATCC25922) [µg/mL]	Structure (SMILES)	IC50 (P. aeruginosa LpxC) [nM]	IC50 (E. coli LpxC) [nM]	MIC (K. pneumoniae ATCC13883) [µg/mL]	MIC (P. aeruginosa 209 PAO1) [µg/mL]	MIC (P. aeruginosa ATCC27835) [µg/mL]	MIC E. coli ATCC25922 (E. coli ATCC25922; broth microdilution) [µg/mL]	MIC K. pneumoniae ATCC13883 (K. pneumoniae ATCC13883; broth microdilution) [µg/mL]	MIC P. aeruginosa 209 PAO1 (P. aeruginosa 209 PAO1; broth microdilution) [µg/mL]	MIC P. aeruginosa ATCC27835 (P. aeruginosa ATCC27835; broth microdilution) [µg/mL]	IC50 (K. pneumoniae LpxC) [nM]
–	C[C@H](O)c1nccn1[C@@H](/C=C/c1ccc(-c2ccc(OCC(N)CO)cc2)cc1)CO (mixture of isomers) [Compound 25, (2S,E)-4-(4′-(2-amino-3-hydroxypropoxy)-[1,1′-biphenyl]-4-yl)-2-(2-((S)-1-hydroxyethyl)-1H-imidazol-1-yl)but-3-en-1-ol]	70.6	44.6	–	–	–	2 (≈ 4.72 µM)	4 (≈ 9.44 µM)	2 (≈ 4.72 µM)	2 (≈ 4.72 µM)	–
–	C[C@H](O)c1nccn1[C@@H](/C=C/c1ccc(-c2ccc(O[C@H]3COC[C@@H]3N)cc2)cc1)CO (racemic) [Compound 34, (S,E)-4-(4′-(((trans)-4-aminotetrahydrofuran-3-yl)oxy)-[1,1′-biphenyl]-4-yl)-2-(2-((S)-1-hydroxyethyl)-1H-imidazol-1-yl)but-3-en-1-ol]	18.9	1.1	2 (≈ 4.59 µM)	0.5 (≈ 1.15 µM)	4 (≈ 9.18 µM)	–	–	–	–	1.9
–	C[C@H](O)c1nccn1[C@@H](/C=C/c1ccc(-c2ccc(O[C@H]3COC[C@@H]3O)cc2)cc1)CO (racemic) [Compound 35, (trans)-4-((4′-((S,E)-4-hydroxy-3-(2-((S)-1-hydroxyethyl)-1H-imidazol-1-yl)but-1-en-1-yl)-[1,1′-biphenyl]-4-yl)oxy)tetrahydrofuran-3-ol]	8.2	< 0.5	2 (≈ 4.58 µM)	1 (≈ 2.29 µM)	4 (≈ 9.16 µM)	–	–	–	–	0.9
–	CCOCC(O)COc1ccc(-c2ccc(/C=C/[C@@H](CO)n3ccnc3[C@H](C)O)cc2)cc1 (mixture of isomers) [Compound 36, (2S,E)-4-(4′-(3-ethoxy-2-hydroxypropoxy)-[1,1′-biphenyl]-4-yl)-2-(2-((S)-1-hydroxyethyl)-1H-imidazol-1-yl)but-3-en-1-ol]	21.3	< 0.5	1 (≈ 2.21 µM)	2 (≈ 4.42 µM)	4 (≈ 8.84 µM)	–	–	–	–	0.8
1 (≈ 2.22 µM)	C[C@H](O)c1nccn1[C@@H](/C=C/c1ccc(-c2ccc(OCC3(CO)COC3)cc2)cc1)CO [Compound 68, (S,E)-2-(2-((S)-1-hydroxyethyl)-1H-imidazol-1-yl)-4-(4′-((3-(hydroxymethyl)oxetan-3-yl)methoxy)-[1,1′-biphenyl]-4-yl)but-3-en-1-ol]	–	–	2 (≈ 4.44 µM)	4 (≈ 8.88 µM)	4 (≈ 8.88 µM)	–	–	–	–	–
0.25	CC(=O)O[C@@H]1C[C@H]1c1ccc(-c2ccc(/C=C/[C@@H](CO)n3ccnc3[C@H](C)O)cc2)cc1 [Compound 69, (1R,2S)-2-(4′-((S,E)-4-hydroxy-3-(2-((S)-1-hydroxyethyl)-1H-imidazol-1-yl)but-1-en-1-yl)-[1,1′-biphenyl]-4-yl)cyclopropyl acetate]	–	–	0.5	2	4	–	–	–	–	–
2 (≈ 4.31 µM)	C[C@H](O)c1nccn1[C@@H](/C=C/c1ccc(-c2ccc(C3CC3OC(CO)CO)cc2)cc1)CO (stereo partly drawn) [Compound 70, 2-(2-(4′-((S,E)-4-hydroxy-3-(2-((S)-1-hydroxyethyl)-1H-imidazol-1-yl)but-1-en-1-yl)-[1,1′-biphenyl]-4-yl)cyclopropoxy)propane-1,3-diol]	–	–	8 (≈ 17.2 µM)	4 (≈ 8.61 µM)	4 (≈ 8.61 µM)	–	–	–	–	–
0.5 (≈ 1.15 µM)	C[C@H](O)c1nccn1[C@@H](/C=C/c1ccc(-c2ccc([C@@H]3C[C@H]3OCCO)cc2)cc1)CO [Compound 71, (S,E)-4-(4′-((1S,2R)-2-(2-hydroxyethoxy)cyclopropyl)-[1,1′-biphenyl]-4-yl)-2-(2-((S)-1-hydroxyethyl)-1H-imidazol-1-yl)but-3-en-1-ol]	–	–	0.5 (≈ 1.15 µM)	2 (≈ 4.6 µM)	4 (≈ 9.21 µM)	–	–	–	–	–
2 (≈ 4.31 µM)	C[C@H](O)c1nccn1[C@@H](/C=C/c1ccc(-c2ccc(C3C[C@H]3OCC(N)CO)cc2)cc1)CO (stereo partly drawn) [Compound 72, (2S,E)-4-(4′-((1S,2R)-2-(2-amino-3-hydroxypropoxy)cyclopropyl)-[1,1′-biphenyl]-4-yl)-2-(2-((S)-1-hydroxyethyl)-1H-imidazol-1-yl)but-3-en-1-ol]	–	–	8 (≈ 17.3 µM)	2 (≈ 4.31 µM)	2 (≈ 4.31 µM)	–	–	–	–	–
0.5 (≈ 1.15 µM)	C[C@H](O)c1nccn1[C@@H](/C=C/c1ccc(-c2ccc(O[C@@H]3CCC[C@H]3O)cc2)cc1)CO [Compound 73, (1R,2R)-2-((4′-((S,E)-4-hydroxy-3-(2-((S)-1-hydroxyethyl)-1H-imidazol-1-yl)but-1-en-1-yl)-[1,1′-biphenyl]-4-yl)oxy)cyclopentan-1-ol]	–	–	1 (≈ 2.3 µM)	2 (≈ 4.6 µM)	4 (≈ 9.21 µM)	–	–	–	–	–
8 (≈ 17.6 µM)	C[C@H](O)c1nccn1[C@@H](/C=C/c1ccc(-c2ccc(OCC(N)(CO)CO)cc2)cc1)CO [Compound 74, 2-amino-2-(((4′-((S,E)-4-hydroxy-3-(2-((S)-1-hydroxyethyl)-1H-imidazol-1-yl)but-1-en-1-yl)-[1,1′-biphenyl]-4-yl)oxy)methyl)propane-1,3-diol]	–	–	> 32	2 (≈ 4.41 µM)	1 (≈ 2.2 µM)	–	–	–	–	–
0.25 (≈ 0.543 µM)	C[C@H](O)c1nccn1[C@@H](/C=C/c1ccc(-c2ccc(C3CC(NCC#N)C3)cc2F)cc1)CO (stereo partly drawn) [Compound 75, 2-((3-(2-fluoro-4′-((S,E)-4-hydroxy-3-(2-((S)-1-hydroxyethyl)-1H-imidazol-1-yl)but-1-en-1-yl)-[1,1′-biphenyl]-4-yl)cyclobutyl)amino)acetonitrile]	–	–	0.5 (≈ 1.09 µM)	2 (≈ 4.34 µM)	4 (≈ 8.69 µM)	–	–	–	–	–

Structure (SMILES)	MIC (E. coli ATCC25922) [µg/mL]	IC50 (P. aeruginosa LpxC) [nM]	IC50 (E. coli LpxC) [nM]	MIC (K. pneumoniae ATCC13883) [µg/mL]	MIC (P. aeruginosa 209 PAO1) [µg/mL]	MIC (P. aeruginosa ATCC27835) [µg/mL]	MIC E. coli ATCC25922 (E. coli ATCC25922; broth microdilution) [µg/mL]	MIC K. pneumoniae ATCC13883 (K. pneumoniae ATCC13883; broth microdilution) [µg/mL]	MIC P. aeruginosa 209 PAO1 (P. aeruginosa 209 PAO1; broth microdilution) [µg/mL]	MIC P. aeruginosa ATCC27835 (P. aeruginosa ATCC27835; broth microdilution) [µg/mL]	IC50 (K. pneumoniae LpxC) [nM]
C[C@H](O)c1nccn1C/C=C/c1ccc(-c2ccc(O[C@@H]3C[C@H]3N)cc2)cc1 (racemic) [Compound 4, (S)-1-(1-((E)-3-(4′-((trans)-2-aminocyclopropoxy)-[1,1′-biphenyl]-4-yl)allyl)-1H-imidazol-2-yl)ethan-1-ol]	0.12 (≈ 0.32 µM)	23.2	9.25	0.12 (≈ 0.32 µM)	2 (≈ 5.33 µM)	4 (≈ 10.7 µM)	–	–	–	–	–
C[C@H](O)c1nccn1[C@@H](/C=C/c1ccc(-c2ccc(OCC(CO)N(C)C)cc2)cc1)CO (mixture of isomers) [Compound 12, (2S,E)-4-(4′-(2-(dimethylamino)-3-hydroxypropoxy)-[1,1′-biphenyl]-4-yl)-2-(2-((S)-1-hydroxyethyl)-1H-imidazol-1-yl)but-3-en-1-ol]	4 (≈ 8.86 µM)	69.2	82.5	16 (≈ 35.4 µM)	4 (≈ 8.86 µM)	4 (≈ 8.86 µM)	–	–	–	–	–
C[C@H](O)c1nccn1[C@@H](/C=C/c1ccc(-c2ccc(O[C@H]3C[C@@H]3N)cc2)cc1)CO (single isomer, unassigned) [Compound 14]	1 (≈ 2.47 µM)	22.3	9.51	2 (≈ 4.93 µM)	1 (≈ 2.47 µM)	8 (≈ 19.7 µM)	–	–	–	–	–
C[C@H](O)c1nccn1C/C=C/c1ccc(-c2ccc(OC3CCN(CCO)CC3)cc2)cc1 [Compound 1, (S,E)-2-(4-((4′-(3-(2-(1-hydroxyethyl)-1H-imidazol-1-yl)prop-1-en-1-yl)-[1,1′-biphenyl]-4-yl)oxy)piperidin-1-yl)ethan-1-ol]	1 (≈ 2.23 µM)	81	25.8	1 (≈ 2.23 µM)	4 (≈ 8.94 µM)	4 (≈ 8.94 µM)	–	–	–	–	–
C[C@H](O)c1nccn1C/C=C/c1ccc(-c2ccc(OC3CCN(CC(O)CO)CC3)cc2)cc1 (stereo partly drawn) [Compound 2, 3-(4-((4′-((E)-3-(2-((S)-1-hydroxyethyl)-1H-imidazol-1-yl)prop-1-en-1-yl)-[1,1′-biphenyl]-4-yl)oxy)piperidin-1-yl)propane-1,2-diol]	1 (≈ 2.09 µM)	15.5	17	2 (≈ 4.19 µM)	4 (≈ 8.38 µM)	4 (≈ 8.38 µM)	–	–	–	–	–
C[C@H](O)c1nccn1C/C=C/c1ccc(-c2ccc(OC[C@H](N)CO)cc2)cc1 [Compound 3, (R)-2-amino-3-((4′-((E)-3-(2-((S)-1-hydroxyethyl)-1H-imidazol-1-yl)prop-1-en-1-yl)-[1,1′-biphenyl]-4-yl)oxy)propan-1-ol]	2 (≈ 5.08 µM)	132	11.4	8 (≈ 20.3 µM)	4 (≈ 10.2 µM)	4 (≈ 10.2 µM)	–	–	–	–	–

From US20240150298A1, “ANTIBACTERIAL COMPOUNDS” (Blacksmith Medicines, Inc., priority 2021, published 2024)
